Test [1] concerns the target T1, Replicative DNA helicase DnaB (Mycobacterium tuberculosis, UniProt P9WMR3).
T1 sequence (P9WMR3 whole entry): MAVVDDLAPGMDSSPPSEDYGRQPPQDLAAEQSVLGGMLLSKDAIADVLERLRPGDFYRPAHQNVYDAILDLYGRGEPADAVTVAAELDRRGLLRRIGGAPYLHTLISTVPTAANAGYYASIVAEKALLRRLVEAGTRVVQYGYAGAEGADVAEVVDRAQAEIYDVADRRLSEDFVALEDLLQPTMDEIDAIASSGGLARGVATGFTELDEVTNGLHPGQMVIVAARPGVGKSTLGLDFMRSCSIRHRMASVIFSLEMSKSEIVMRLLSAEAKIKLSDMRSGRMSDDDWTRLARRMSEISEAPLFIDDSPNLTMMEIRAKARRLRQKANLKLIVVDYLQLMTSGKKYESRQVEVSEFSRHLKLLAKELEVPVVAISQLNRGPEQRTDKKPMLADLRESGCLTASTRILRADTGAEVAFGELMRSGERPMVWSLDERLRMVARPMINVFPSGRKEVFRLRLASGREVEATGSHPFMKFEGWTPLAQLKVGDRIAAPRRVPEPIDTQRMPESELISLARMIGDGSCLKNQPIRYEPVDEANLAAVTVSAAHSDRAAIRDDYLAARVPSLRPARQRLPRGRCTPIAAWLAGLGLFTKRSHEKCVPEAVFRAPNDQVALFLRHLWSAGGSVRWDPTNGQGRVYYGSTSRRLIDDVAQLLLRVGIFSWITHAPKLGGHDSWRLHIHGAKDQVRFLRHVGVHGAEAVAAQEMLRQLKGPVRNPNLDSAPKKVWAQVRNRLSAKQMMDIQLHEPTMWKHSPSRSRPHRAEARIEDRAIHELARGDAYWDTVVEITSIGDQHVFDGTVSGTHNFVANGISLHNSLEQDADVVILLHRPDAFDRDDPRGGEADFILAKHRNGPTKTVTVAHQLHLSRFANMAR
As to the kind of experiment: DnaB intein splicing inhibitors, dose response, biochemical, cell-free fluorescence (AID 449749). The class given is functional.

Test [2] deals with Polyadenylate-binding protein 1 (Homo sapiens, UniProt P11940). The experiment in a line: PABP1 MLLE–PAM2 interaction inhibitors, dose response, miRNA deadenylation inhibitor project, biochemical, fluorescence polarization, Cy5-PAM2 peptide, secondary (AID 602260). The note with it: read-out: IC50_Mean. It counts as functional. For orientation: Fluorescence polarisation rises when a labelled molecule tumbles more slowly, as on binding a larger partner.
Chain of Polyadenylate-binding protein 1 (P11940 whole entry): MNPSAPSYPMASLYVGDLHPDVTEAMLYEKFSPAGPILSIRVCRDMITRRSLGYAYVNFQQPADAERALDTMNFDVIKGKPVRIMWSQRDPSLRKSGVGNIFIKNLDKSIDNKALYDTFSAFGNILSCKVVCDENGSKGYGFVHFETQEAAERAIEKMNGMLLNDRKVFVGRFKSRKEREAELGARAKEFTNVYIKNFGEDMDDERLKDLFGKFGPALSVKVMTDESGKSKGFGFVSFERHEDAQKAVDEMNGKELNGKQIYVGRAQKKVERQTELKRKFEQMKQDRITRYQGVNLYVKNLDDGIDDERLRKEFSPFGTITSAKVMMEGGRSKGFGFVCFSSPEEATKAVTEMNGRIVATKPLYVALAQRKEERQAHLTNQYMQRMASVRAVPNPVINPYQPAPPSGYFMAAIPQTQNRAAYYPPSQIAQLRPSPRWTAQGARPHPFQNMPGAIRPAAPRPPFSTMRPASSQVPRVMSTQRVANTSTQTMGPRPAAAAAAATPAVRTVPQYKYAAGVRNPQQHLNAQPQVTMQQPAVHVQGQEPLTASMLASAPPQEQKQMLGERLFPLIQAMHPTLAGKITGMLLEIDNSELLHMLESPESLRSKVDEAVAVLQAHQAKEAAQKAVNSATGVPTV

The target in test [3] is T2, Bifunctional protein GlmU (Mycobacterium tuberculosis, UniProt P9WMN3).
T2 sequence (P9WMN3 whole entry): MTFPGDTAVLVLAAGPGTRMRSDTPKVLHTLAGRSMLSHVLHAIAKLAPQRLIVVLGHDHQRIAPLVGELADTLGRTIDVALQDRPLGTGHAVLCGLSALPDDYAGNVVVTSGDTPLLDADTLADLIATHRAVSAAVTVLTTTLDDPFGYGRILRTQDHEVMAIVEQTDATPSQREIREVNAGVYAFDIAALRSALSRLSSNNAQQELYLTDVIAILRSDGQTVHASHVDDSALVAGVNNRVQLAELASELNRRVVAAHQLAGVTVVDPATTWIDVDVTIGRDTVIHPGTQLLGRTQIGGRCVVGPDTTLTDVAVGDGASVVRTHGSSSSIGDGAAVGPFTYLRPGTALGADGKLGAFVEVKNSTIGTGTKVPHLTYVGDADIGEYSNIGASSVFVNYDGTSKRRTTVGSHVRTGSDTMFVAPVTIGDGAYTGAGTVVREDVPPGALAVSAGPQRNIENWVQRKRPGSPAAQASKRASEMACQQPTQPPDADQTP
As to the kind of experiment: Inhibitors of Mycobacterial Glucosamine-1-phosphate acetyl transferase (GlmU). Secondary screen. Set-up: species or system Mycobacterium tuberculosis H37Rv.

Test [4] deals with Voltage-gated N-type calcium channel alpha-1B subunit/Amyloid beta A4 precursor protein-binding family A member 1 (Homo sapiens, UniProt Q00975+Q02410). The class given is protein assay.
Chain of Voltage-gated N-type calcium channel alpha-1B subunit/Amyloid beta A4 precursor protein-binding family A member 1 (Q00975 whole entry): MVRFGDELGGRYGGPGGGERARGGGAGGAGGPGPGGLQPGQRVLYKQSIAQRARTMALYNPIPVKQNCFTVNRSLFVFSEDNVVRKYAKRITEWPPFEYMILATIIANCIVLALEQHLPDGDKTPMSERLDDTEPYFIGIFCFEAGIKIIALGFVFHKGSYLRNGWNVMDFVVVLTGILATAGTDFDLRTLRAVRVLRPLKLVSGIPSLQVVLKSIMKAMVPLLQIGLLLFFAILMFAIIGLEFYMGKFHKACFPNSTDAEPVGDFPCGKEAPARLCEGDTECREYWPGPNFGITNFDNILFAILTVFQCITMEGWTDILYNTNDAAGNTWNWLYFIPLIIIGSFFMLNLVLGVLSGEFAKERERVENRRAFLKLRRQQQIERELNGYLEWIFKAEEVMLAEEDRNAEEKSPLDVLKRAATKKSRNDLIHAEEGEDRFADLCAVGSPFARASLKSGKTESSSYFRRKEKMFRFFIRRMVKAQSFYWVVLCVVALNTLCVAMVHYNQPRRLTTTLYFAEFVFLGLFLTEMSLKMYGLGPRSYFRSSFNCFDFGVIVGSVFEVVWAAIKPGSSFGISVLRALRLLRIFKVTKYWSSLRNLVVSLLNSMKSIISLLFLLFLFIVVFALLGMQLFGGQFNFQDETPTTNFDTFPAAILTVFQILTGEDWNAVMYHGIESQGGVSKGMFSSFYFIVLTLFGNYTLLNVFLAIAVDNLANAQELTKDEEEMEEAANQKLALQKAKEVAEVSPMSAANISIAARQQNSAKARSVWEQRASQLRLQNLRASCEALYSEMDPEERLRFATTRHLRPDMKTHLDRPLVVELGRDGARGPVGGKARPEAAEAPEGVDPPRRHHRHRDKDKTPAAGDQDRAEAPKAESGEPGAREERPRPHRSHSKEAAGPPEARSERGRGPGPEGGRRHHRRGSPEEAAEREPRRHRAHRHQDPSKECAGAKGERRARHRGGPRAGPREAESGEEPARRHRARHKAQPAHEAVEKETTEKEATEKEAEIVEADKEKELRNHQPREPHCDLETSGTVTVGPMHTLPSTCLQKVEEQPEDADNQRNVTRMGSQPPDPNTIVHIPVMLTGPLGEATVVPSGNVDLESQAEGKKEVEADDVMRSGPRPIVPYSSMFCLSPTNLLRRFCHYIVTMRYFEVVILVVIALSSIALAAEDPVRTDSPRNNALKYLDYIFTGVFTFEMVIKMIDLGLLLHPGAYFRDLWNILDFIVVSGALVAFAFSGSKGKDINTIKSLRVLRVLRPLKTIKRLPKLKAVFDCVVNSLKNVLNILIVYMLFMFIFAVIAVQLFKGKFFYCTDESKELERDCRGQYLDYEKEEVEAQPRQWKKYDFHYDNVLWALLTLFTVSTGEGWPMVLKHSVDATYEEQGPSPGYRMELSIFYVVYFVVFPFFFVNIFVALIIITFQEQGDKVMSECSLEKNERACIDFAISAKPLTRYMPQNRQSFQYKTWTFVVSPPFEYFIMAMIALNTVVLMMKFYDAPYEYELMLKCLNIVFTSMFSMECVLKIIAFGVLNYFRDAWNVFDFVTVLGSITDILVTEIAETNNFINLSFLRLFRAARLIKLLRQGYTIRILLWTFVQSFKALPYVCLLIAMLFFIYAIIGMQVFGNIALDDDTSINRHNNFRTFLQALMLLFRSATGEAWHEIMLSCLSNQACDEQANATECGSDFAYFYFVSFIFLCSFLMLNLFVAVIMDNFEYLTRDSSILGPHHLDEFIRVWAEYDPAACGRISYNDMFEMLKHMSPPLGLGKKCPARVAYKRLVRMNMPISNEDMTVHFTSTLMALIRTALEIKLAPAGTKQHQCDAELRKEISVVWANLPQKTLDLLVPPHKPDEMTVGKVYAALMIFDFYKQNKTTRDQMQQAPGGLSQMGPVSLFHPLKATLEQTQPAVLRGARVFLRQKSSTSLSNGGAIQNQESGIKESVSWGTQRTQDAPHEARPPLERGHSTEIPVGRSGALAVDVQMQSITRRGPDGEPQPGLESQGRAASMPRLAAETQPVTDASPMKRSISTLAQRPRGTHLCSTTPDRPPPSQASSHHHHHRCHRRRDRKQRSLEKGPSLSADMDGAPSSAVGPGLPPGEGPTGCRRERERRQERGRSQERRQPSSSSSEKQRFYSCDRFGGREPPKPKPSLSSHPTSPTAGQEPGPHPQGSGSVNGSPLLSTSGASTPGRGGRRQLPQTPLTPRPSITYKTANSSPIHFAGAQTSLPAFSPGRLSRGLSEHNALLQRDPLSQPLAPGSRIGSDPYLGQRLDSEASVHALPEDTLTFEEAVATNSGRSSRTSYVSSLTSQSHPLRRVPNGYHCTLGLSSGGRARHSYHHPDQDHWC
Chain of Voltage-gated N-type calcium channel alpha-1B subunit/Amyloid beta A4 precursor protein-binding family A member 1 (Q02410 whole entry): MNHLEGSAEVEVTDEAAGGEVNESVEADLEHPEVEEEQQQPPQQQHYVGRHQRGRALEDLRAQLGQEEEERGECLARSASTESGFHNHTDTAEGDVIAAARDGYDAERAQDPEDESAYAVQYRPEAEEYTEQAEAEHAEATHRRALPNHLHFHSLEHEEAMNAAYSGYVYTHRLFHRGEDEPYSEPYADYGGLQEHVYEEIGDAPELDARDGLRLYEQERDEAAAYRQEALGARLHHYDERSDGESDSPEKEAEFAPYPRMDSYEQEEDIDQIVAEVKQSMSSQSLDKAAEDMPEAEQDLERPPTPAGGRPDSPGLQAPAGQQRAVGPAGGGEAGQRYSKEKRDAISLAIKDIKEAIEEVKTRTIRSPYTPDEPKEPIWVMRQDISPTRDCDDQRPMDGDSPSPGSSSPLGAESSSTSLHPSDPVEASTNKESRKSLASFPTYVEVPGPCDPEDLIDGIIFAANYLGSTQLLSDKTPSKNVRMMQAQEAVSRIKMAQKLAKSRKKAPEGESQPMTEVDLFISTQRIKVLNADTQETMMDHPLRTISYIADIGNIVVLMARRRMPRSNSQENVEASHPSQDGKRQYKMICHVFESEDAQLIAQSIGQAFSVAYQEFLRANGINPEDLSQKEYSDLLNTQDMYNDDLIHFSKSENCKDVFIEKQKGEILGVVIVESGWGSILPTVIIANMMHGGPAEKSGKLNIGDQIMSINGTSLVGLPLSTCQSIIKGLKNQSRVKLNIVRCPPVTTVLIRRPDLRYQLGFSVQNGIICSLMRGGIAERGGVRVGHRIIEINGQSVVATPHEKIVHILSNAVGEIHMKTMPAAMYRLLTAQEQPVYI
Another test concerns the target T3, Hexokinase HKDC1 (Homo sapiens, UniProt Q2TB90).
T3 sequence (Q2TB90 whole entry): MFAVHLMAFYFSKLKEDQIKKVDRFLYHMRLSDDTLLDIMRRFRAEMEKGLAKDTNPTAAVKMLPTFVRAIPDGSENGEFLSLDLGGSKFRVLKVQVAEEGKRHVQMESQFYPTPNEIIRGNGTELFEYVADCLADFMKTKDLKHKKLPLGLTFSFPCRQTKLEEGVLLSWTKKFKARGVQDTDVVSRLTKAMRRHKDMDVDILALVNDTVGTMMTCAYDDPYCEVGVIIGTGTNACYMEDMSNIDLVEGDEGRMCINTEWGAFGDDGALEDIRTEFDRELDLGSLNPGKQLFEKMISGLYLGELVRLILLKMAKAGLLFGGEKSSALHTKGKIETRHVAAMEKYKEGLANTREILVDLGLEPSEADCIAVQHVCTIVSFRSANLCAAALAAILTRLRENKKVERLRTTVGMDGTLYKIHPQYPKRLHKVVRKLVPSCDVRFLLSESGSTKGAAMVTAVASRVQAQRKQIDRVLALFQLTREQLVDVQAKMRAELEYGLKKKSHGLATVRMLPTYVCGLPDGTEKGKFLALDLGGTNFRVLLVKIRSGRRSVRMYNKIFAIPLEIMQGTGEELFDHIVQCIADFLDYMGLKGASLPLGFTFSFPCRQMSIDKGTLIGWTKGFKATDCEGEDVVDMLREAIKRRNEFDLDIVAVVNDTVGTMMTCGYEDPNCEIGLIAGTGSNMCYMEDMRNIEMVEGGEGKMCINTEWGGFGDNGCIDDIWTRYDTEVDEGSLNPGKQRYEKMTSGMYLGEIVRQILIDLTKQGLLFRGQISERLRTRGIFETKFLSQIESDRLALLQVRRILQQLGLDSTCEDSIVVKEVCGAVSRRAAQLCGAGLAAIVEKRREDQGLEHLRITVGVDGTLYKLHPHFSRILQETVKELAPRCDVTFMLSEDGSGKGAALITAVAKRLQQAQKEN
As to the kind of experiment: HKDC1 hexokinase inhibitors, dose response, biochemical, W721R variant (AID 504729). It counts as functional.

In test [5] the target is Lysine-specific demethylase 4C (Homo sapiens, UniProt Q9H3R0). The experiment in a line: GASC-1 (JMJD2C) histone demethylase inhibitors, dose response, biochemical, DELFIA europium, cherry-picked samples (AID 488835). The class given is functional.
Chain of Lysine-specific demethylase 4C (Q9H3R0 whole entry): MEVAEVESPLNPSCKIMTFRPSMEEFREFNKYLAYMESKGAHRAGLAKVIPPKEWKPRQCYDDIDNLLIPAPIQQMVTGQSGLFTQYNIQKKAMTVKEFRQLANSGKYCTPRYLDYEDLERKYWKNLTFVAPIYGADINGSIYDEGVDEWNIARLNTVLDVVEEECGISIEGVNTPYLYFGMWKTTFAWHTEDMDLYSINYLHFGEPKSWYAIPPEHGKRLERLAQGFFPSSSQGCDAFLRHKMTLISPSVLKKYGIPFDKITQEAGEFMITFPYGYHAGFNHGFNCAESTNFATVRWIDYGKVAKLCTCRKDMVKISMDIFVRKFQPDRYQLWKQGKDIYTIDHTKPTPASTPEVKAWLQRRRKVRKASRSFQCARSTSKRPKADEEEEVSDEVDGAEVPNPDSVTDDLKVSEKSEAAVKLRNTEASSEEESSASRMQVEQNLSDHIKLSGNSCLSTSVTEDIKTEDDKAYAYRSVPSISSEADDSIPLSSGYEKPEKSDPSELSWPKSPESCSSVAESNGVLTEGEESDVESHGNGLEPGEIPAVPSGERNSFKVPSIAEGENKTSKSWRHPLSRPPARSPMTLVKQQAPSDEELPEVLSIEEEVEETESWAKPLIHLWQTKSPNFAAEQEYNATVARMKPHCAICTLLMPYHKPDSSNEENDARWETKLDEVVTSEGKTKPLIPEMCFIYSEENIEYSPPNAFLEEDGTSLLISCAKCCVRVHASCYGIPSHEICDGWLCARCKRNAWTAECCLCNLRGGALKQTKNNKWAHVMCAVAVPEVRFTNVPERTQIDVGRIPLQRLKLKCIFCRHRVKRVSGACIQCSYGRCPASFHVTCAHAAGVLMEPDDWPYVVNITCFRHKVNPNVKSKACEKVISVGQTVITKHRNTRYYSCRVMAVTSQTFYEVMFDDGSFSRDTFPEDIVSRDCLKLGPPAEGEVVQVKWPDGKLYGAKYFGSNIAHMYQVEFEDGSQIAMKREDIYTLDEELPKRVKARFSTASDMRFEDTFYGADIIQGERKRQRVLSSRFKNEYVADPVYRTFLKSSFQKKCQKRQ

Broadly, the AC50 is the concentration giving half of the maximal activity seen.

Molecules are shown by their SMILES. The source made the active and inactive calls. A value given as a limit tells only on which side of the number the result lay.

As for `CNCc1ccccc1Sc1ccc(O)c(O)c1`, the AC50 in test [1] was > 120 µM (inactive). The IC50 in test [2] is > 66 µM (inactive).
For the compound `O=C(O)c1cc(N2N=C(C(F)(F)F)/C(=C/C=C/c3ccco3)C2=O)ccc1Cl`, the values for the IC50 (in test [3]; in test [4]; on Hexokinase HKDC1) were 94.3 µM (active), 11.7 µM (active) and 5.66 µM (active), respectively.
In the case of `Cc1cc(C)c(S(=O)(=O)Nc2cc(SCC(=O)O)c(O)c3ccccc23)cc1C`, the AC50 in test [1] was 1.1 µM (active); in test [5], 13 µM (active). Moreover, the IC50 on Hexokinase HKDC1 is 4.72 µM (active).

For the origin of these results see ChEMBL document CHEMBL1201862, “PubChem BioAssay data set” (2004).
